Test results reported in paper PMC4948780, “PARP Inhibitors in Clinical Use Induce Genomic Instability in Normal Human Cells” (PLoS ONE, 2016).

Key:
primary T cell 2 = assay: Survival, trypan blue exclusion test of cell viability; assay type: cell-based; conditions: Homo sapiens, read-out: IC50 of olaparib, continuous exposure
From the text: Human mammary epithelial cell lines used included non-tumorigenic diploid MCF-10A, HMEC-hTERT and tumorigenic MDA-MB-468 (basal) and MCF-7 (luminal). […] Blood samples were obtained from normal donor participants. The participants provided written informed consent to IRB protocol #95–054 approved by the Institutional Review Board at MSKCC. The original signed consent is then sent to the research participant’s medical record and a copy of the consent is given to the participant. The EBV-transformed B-lymphocyte cell line (EBV-BL) was generated by transformation of peripheral blood mononuclear cells (PBMC) with the B95.8 strain of EBV, as previously described. Primary T cells were generated from PBMC from two normal donors by non-specific activation with phytohemagglutinin and cultured in RPMI1640 and human serum AB for 4–14 days before use. E14 mES cell line was provided by M. Hooper, Brca1^-/- 236.44 mES cell line was provided by B. H. Koller, Brca2^lex1/lex2 mES cell line was provided by P. Hasty and Lexicon Genetics. E14 wild-type, Brca1^-/- 236.44, and Brca2^lex1/lex2 mES cell lines were cultured in standard ES media. Brca1^-/- 236.44 cells express a BRCA1 peptide deleted for sequences encoded by exon 11 [52], while Brca2^lex1/lex2 cells express a BRCA2 peptide deleted for the terminal exon 27 [53]. […] Viable cells were scored by trypan blue exclusion.

MDA-MB-468 = assay: Chromosomal aberrations on metaphase spreads (Giemsa); assay type: cell-based, human; conditions: 1 μM, 24 hrs
Experimental: (§1) To prepare metaphase spreads, exponentially growing cells were treated with 0.1–0.3 μg/ml of colcemid for 1–6 hr. Cells were collected and incubated in hypotonic solution (0.56% KCl), fixed in methanol: acetic acid (3:1), spotted to slides and air-dried. To measure chromosomal aberrations, the slides were stained with 2% Giemsa/Sorensen’s buffer. To visualize SCEs, the doubling time for each cell type was determined. Cells were incubated with 10 μM BrdU for two cell cycles. After metaphase spreads were prepared, the slides were treated with 0.5 μg/ml Hoechst 33258. The slides were exposed to black light for 20–60 min, incubated at 60°C for 2 hr, and stained in 4–10% Giemsa/Sorensen’s buffer.

MCF-7 = assay: as above; assay type: cell-based, human; conditions: 1 μM, 24 hrs
Experimental: as §1

EBV-BL [1] = assay: as above; assay type: cell-based, human; conditions: 1 μM, 24 hrs, 100 metaphases
Experimental: as §1

HMEC-hTERT = assay: as above; assay type: cell-based, human; conditions: 1 μM, 24 hrs
Experimental: as §1

primary T cell 1 = assay: as above; assay type: cell-based, human; conditions: 1 μM, 24 hrs
Experimental: as §1

MCF-10A = assay: as above; assay type: cell-based, human; conditions: 1 μM, 24 hrs
Experimental: as §1

EBV-BL [2] = assay: Survival, trypan blue exclusion test of cell viability; assay type: cell-based, human
From the text: (§2) Human mammary epithelial cell lines used included non-tumorigenic diploid MCF-10A, HMEC-hTERT and tumorigenic MDA-MB-468 (basal) and MCF-7 (luminal). […] Blood samples were obtained from normal donor participants. The participants provided written informed consent to IRB protocol #95–054 approved by the Institutional Review Board at MSKCC. The original signed consent is then sent to the research participant’s medical record and a copy of the consent is given to the participant. The EBV-transformed B-lymphocyte cell line (EBV-BL) was generated by transformation of peripheral blood mononuclear cells (PBMC) with the B95.8 strain of EBV, as previously described. Primary T cells were generated from PBMC from two normal donors by non-specific activation with phytohemagglutinin and cultured in RPMI1640 and human serum AB for 4–14 days before use. E14 mES cell line was provided by M. Hooper, Brca1^-/- 236.44 mES cell line was provided by B. H. Koller, Brca2^lex1/lex2 mES cell line was provided by P. Hasty and Lexicon Genetics. E14 wild-type, Brca1^-/- 236.44, and Brca2^lex1/lex2 mES cell lines were cultured in standard ES media. Brca1^-/- 236.44 cells express a BRCA1 peptide deleted for sequences encoded by exon 11 [52], while Brca2^lex1/lex2 cells express a BRCA2 peptide deleted for the terminal exon 27 [53]. […] Veliparib and BSI-201 were purchased from Chemie Tek. The compounds were dissolved in DMSO and PBS. For clonogenic survival assays, MCF-10A (1000 cells), HMEC-hTERT (1000 cells), MDA-MB-468 (1500 cells) and mouse ES cell (2000 cells) were seeded, vehicle control or inhibitors were added at the indicated concentration 24 hours after seeding and changed every three days for continuous treatment. At 7–14 days, colonies were fixed with methanol and stained with Giemsa. For EBV-BL (6 × 10^6) and primary T cells (3.6 × 10^6) were continuously exposed to the indicated concentration of drug for 10 days at 0.6 × 10^6 cells/ml. Viable cells were scored by trypan blue exclusion.

[3] = system: Brca1^-/- 236.44 mES cells; assay: Clonogenic survival assay, mES cells; assay type: cell-based, mouse
From the text: as §2

[4] = system: Brca2^lex1/lex2 mES cells; assay: Clonogenic survival assay, mES cells; assay type: cell-based, mouse
From the text: as §2

[5] = 100 metaphases, radial and telomere association counted as two
[6] = Mus musculus, read-out: IC50 (clonogenic survival)

For `O=C(c1cc(Cc2n[nH]c(=O)c3ccccc23)ccc1F)N1CCN(C(=O)C2CC2)CC1` [olaparib], the IC50 (primary T cell 2) was 2700 nM, the “total chromatid-type aberrations / metaphase (mean ± SEM)” value (MDA-MB-468) was 0.67 ± 0.13 and the chromatid-type radial chromosome (MDA-MB-468; 100 metaphases) was 5. It also gave a chromatid-type telomere association (MDA-MB-468; 100 metaphases) of 3, a chromosome-type dicentric (MDA-MB-468; 100 metaphases) of 4 and a chromosome-type gap/break (MDA-MB-468; 100 metaphases) of 5. For the same molecule, the total chromatid-type aberrations (MDA-MB-468; [5]) was 67, the “total chromatid-type aberrations / metaphase (mean ± SEM)” value (MCF-7) was 1.39 ± 0.14 and the chromatid-type radial chromosome (MCF-7; 100 metaphases) was 4. For the same molecule, the chromatid-type telomere association (MCF-7; 100 metaphases) was 1, the chromosome-type dicentric (MCF-7; 100 metaphases) was 4 and the chromosome-type gap/break (MCF-7; 100 metaphases) was 8. It also gave a chromatid-type radial chromosome (EBV-BL [1]) of 1, a chromatid-type telomere association (EBV-BL [1]) of 0 and a chromosome-type dicentric (EBV-BL [1]) of 0. For the same molecule, the chromosome-type gap/break (EBV-BL [1]) was 1, the total chromatid-type aberrations (EBV-BL [1]; radial and telomere association counted as two) was 44 and the “total chromatid-type aberrations / metaphase (mean ± SEM)” value (HMEC-hTERT) was 0.30 ± 0.07. It also gave a chromatid-type radial chromosome (HMEC-hTERT; 100 metaphases) of 0, a chromatid-type telomere association (HMEC-hTERT; 100 metaphases) of 0 and a chromosome-type dicentric (HMEC-hTERT; 100 metaphases) of 0. The chromosome-type gap/break (HMEC-hTERT; 100 metaphases) was 4, the total chromatid-type aberrations (HMEC-hTERT; [5]) was 30 and the “total chromatid-type aberrations / metaphase (mean ± SEM)” value (primary T cell 1) was 0.44 ± 0.07. It also gave a chromatid-type radial chromosome (primary T cell 1; 100 metaphases) of 2, a chromatid-type telomere association (primary T cell 1; 100 metaphases) of 0 and a chromosome-type dicentric (primary T cell 1; 100 metaphases) of 3. The chromosome-type gap/break (primary T cell 1; 100 metaphases) was 0, the total chromatid-type aberrations (primary T cell 1; [5]) was 44 and the “total chromatid-type aberrations / metaphase (mean ± SEM)” value (MCF-10A) was 0.22 ± 0.05. The chromatid-type radial chromosome (MCF-10A; 100 metaphases) was 0, the chromatid-type telomere association (MCF-10A; 100 metaphases) was 1 and the chromosome-type dicentric (MCF-10A; 100 metaphases) was 0. For the same molecule, the chromosome-type gap/break (MCF-10A; 100 metaphases) was 3, the total chromatid-type aberrations (MCF-10A; [5]) was 22 and the “survival (mean ± SD)” value (EBV-BL [2]; EBV-BL, 1 μM) was 92.6 ± 7.4%. The IC50 (EBV-BL [2]; Homo sapiens, 240 h, read-out: IC50 (cell survival), EBV-BL, continuous exposure 10 days, trypan blue exclusion) was 3.6 µM, the IC50 [3, 6] was 2.5 nM and the “enhanced sensitivity of cells lacking wild-type BRCA1 vs wild-type cells” value ([3]; ratio of IC50, wild-type / Brca1^-/- 236.44) was 240 fold. For the same molecule, the IC50 [4, 6] was 13 nM and the “enhanced sensitivity of cells lacking wild-type BRCA2 vs wild-type cells” value ([4]; ratio of IC50, wild-type / Brca2^lex1/lex2) was 46 fold.
